Test results as given in US10065963B2 (Incyte Corporation, priority 2015, dated 2018).
Structures can show the parent of a compound that is named as a salt. Where two headings read alike, the source gives them in different places.

Experiments:
[1] = biological target: PI3Kγ (p110γ) Recombinant Human Protein (Homo sapiens (Human), UniProt P48736); assay: PI3K-γ scintillation proximity assay; type: biochemical; details: 2 μM ATP, 20 μM PIP2
[2] = system: Phosphorylated Ribosomal Protein S6 (RPS6) in THP-1 cells; assay: THP-1 RPS6 ELISA assay; type: cell-based, human; details: 10 nM MCP-1, read-out: PI3Kγ_THP1_RPS6_ELISA IC50
[3] = biological target: PI3Kδ (p110δ/p85α) Recombinant Human Protein (Homo sapiens (Human), UniProt O00329); assay: PI3Kδ scintillation proximity assay; type: biochemical; details: 2 μM ATP, 20 μM PIP2
[4] = Homo sapiens, THP-1, THP-1 cells

Chain of PI3Kδ (p110δ/p85α) Recombinant Human Protein (O00329 whole entry): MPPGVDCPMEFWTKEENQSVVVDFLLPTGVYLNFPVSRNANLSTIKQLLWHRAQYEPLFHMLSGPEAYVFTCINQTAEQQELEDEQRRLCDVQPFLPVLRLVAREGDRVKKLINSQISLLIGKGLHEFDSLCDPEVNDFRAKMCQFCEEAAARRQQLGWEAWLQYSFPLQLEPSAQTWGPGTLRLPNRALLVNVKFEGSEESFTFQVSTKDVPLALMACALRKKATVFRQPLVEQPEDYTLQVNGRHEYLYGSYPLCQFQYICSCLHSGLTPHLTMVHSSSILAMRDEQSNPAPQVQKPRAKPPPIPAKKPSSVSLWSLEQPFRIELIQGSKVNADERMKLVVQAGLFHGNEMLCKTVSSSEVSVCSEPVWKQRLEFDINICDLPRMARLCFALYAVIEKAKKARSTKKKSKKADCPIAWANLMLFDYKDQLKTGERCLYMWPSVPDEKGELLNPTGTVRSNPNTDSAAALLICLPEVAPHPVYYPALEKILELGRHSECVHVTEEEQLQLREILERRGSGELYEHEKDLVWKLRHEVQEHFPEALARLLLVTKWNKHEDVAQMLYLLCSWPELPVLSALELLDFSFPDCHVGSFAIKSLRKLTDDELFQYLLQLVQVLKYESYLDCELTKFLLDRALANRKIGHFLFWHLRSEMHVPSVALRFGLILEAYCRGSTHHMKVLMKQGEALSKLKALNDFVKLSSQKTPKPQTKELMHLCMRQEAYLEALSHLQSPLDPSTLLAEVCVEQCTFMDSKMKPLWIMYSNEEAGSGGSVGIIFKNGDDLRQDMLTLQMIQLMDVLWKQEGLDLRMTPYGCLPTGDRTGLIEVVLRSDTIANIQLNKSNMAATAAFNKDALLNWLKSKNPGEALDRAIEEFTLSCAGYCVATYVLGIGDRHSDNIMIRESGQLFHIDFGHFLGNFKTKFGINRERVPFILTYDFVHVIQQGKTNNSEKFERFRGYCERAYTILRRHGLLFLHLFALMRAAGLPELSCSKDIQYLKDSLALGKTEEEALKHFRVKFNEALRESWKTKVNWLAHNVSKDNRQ
Chain of PI3Kδ (p110δ/p85α) Recombinant Human Protein (P27986 whole entry partner): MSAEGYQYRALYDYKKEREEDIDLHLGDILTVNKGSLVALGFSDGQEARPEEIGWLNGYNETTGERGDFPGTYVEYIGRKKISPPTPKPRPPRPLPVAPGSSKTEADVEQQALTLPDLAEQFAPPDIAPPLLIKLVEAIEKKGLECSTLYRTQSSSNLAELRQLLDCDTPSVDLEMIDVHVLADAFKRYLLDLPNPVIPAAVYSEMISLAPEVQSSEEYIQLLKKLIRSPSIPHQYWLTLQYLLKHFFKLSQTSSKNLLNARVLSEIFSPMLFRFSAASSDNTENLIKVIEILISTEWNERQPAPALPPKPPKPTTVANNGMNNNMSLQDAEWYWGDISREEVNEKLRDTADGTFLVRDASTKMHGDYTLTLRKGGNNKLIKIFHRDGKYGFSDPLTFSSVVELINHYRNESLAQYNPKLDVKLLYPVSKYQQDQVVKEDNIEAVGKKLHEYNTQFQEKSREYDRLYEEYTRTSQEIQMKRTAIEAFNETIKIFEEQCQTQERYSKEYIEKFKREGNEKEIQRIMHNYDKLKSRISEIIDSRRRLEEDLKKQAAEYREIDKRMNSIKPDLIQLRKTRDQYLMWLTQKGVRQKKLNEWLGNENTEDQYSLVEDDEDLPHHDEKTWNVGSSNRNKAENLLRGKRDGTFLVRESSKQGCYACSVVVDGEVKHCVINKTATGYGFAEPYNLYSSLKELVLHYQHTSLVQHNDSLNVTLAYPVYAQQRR
Chain of PI3Kγ (p110γ) Recombinant Human Protein (P48736 whole entry): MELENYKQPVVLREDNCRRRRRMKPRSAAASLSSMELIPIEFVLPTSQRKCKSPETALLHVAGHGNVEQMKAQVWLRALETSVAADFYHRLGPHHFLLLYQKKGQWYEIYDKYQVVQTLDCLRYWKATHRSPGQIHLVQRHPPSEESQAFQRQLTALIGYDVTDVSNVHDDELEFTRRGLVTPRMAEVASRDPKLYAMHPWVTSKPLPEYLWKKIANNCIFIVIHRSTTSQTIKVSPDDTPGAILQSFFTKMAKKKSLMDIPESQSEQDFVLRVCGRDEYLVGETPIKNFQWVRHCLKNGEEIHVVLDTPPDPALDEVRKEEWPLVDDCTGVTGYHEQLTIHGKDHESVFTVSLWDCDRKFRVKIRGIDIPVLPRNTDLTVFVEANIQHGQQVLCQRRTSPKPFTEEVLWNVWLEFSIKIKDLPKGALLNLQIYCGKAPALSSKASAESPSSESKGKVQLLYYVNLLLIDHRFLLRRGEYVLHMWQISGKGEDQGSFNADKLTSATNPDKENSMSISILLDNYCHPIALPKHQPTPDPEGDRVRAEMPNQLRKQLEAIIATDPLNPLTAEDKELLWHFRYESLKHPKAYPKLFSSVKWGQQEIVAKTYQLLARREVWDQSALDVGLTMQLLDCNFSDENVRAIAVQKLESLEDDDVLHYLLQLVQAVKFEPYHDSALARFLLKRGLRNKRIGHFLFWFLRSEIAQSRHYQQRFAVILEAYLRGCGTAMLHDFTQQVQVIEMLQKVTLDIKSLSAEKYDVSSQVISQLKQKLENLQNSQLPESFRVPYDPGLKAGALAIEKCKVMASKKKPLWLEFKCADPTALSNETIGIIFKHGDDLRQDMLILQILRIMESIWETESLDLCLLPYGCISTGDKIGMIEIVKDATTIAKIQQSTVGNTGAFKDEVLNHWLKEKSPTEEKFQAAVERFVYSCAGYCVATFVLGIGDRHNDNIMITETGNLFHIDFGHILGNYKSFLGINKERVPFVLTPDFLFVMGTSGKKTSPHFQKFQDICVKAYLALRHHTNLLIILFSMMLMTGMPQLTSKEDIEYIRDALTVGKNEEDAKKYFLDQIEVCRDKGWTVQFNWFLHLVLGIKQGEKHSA

| SMILES | IC50 [1] | IC50 ([2]; THP-1 cells) | IC50 [3] | IC50 [2, 4] |
| --- | --- | --- | --- | --- |
| CC(NC(=O)c1c(N)nn2cccnc12)c1cc(Cl)c2cncn2c1N1C[C@@H](O)C[C@@H](F)C1 (stereo partly drawn) [Example 156, 2-Ammo-N-(1-{8-chloro-5-[(3R,5S)-3-fluoro-5-hydroxypiperidin-1-yl]imidazo[1,5-a]pyridin-6-yl}ethyl)pyrazolo[1,5-a]pyrimidine-3-carboxamide trifluoroacetate salt] | < 100 nM | < 1000 nM | < 2000 nM | – |
| CCC(NC(=O)c1c(N)nn2cccnc12)c1cc(Cl)c2c(C#N)ncn2c1N1CCS(=O)(=O)C(C)C1 (stereo not drawn) [Example 175, 2-Amino-N-(1-(8-chloro-1-cyano-5-(2-methyl-1,1-dioxidothiomorpholino)imidazo[1,5-a]pyridin-6-yl)propyl)pyrazolo[1,5-a]pyrimidine-3-carboxamide trifluoroacetate salt] | < 100 nM | – | < 2000 nM | < 500 nM |
| CC(NC(=O)c1c(N)nn2cccnc12)c1cc(Cl)c2cncn2c1C1CCCC1 (stereo not drawn) [Example 62, 2-amino-N-(1-(8-chloro-5-cyclopentylimidazo[1,5-a]pyridin-6-yl)ethyl)pyrazolo[1,5-a]pyrimidine-3-carboxamide trifluoroacetate] | < 100 nM | – | < 500 nM | < 500 nM |
| CC(NC(=O)c1c(N)nn2cccnc12)c1cc(Cl)c2c(Cl)ncn2c1N1CCC(C#N)CC1 (racemic) [Example 163, 2-Amino-N-{1-[1,8-dichloro-5-(4-cyanopiperidin-1-yl)imidazo[1,5-a]pyridin-6-yl]ethyl}pyrazolo[1,5-a]pyrimidine-3-carboxamide trifluoroacetate salt] | < 100 nM | – | < 100 nM | < 500 nM |
| Cc1ncc2c(Cl)cc(C(C)NC(=O)c3c(N)nn4cccnc34)c(N3CCCS(=O)(=O)CC3)n12 (racemic) [Example 158, 2-Amino-N-(1-(8-chloro-5-(1,1-dioxido-1,4-thiazepan-4-yl)-3-methylimidazo[1,5-a]pyridin-6-yl)ethyl)pyrazolo[1,5-a]pyrimidine-3-carboxamide trifluoroacetate salt] | < 100 nM | – | < 500 nM | < 500 nM |
| CC(NC(=O)c1c(N)nn2cccnc12)c1cc(Cl)c2cncn2c1N1C[C@H](O)[C@@H](F)C1 (mixture of isomers) [Example 35, 2-Amino-N-(1-(8-chloro-5-((3S,4S)-3-fluoro-4-hydroxypyrrolidin-1-yl)imidazo[1,5-a]pyridin-6-yl)ethyl)pyrazolo[1,5-a]pyrimidine-3-carboxamide trifluoroacetate salt] | < 100 nM | – | < 100 nM | < 500 nM |
| CC(NC(=O)c1c(N)nn2cccnc12)c1cc(Cl)c2c(Br)n[nH]c2c1-c1ccccc1 (stereo not drawn) [Example 23] | – | – | – | < 1000 nM |
| CCOc1c(C(C)NC(=O)c2c(N)nn3cccnc23)cc(Cl)c2cnn(C)c12 (stereo not drawn) | – | – | – | < 500 nM |
| Cc1nnc2c(Cl)cc(C(C)NC(=O)c3c(N)nn4cccnc34)c(-c3ccccc3)n12 (racemic) [Example 184, 2-Amino-N-[1-(8-chloro-3-methyl-5-phenyl[1,2,4]triazolo[4,3-a]pyridin-6-yl)ethyl]pyrazolo[1,5-a]pyrimidine-3-carboxamide trifluoroacetate salt] | < 500 nM | – | ≥ 2000 nM | – |
| CCOc1c(C(C)NC(=O)c2c(N)nn3cccnc23)cc(Cl)c2cn(CC#N)nc12 (stereo not drawn) [Example 7a, 2-amino-N-(1-(4-chloro-2-(cyanomethyl)-7-ethoxy-2H-indazol-6-yl)ethyl)pyrazolo[1,5-a]pyrimidine-3-carboxamide trifluoroacetate] | > 2000 nM | – | ≥ 2000 nM | – |
| CC(NC(=O)c1c(N)nn2cccnc12)c1cc(Cl)c2cn[nH]c2c1N1CCC(C(=O)N(C)C)CC1 (stereo not drawn) [Example 108, 2-Amino-N-[1-(4-chloro-7-{4-[(dimethylamino)carbonyl]piperidin-1-yl}-2H-indazol-6-yl)ethyl]pyrazolo[1,5-a]pyrimidine-3-carboxamide trifluoroacetate] | < 100 nM | – | < 500 nM | – |
| CNC(=O)c1ccc(-c2c(C(C)NC(=O)c3c(N)nn4cccnc34)cc(Cl)c3cncn23)cn1 (racemic) [Example 132, 2-Amino-N-[1-{8-chloro-5-{6-[(methylamino)carbonyl]pyridin-3-yl}imidazo [1,5-a]pyridin-6-yl)ethyl]pyrazolo[1,5-a]pyrimidine-3-carboxamide trifluoroacetate salt] | < 500 nM | – | < 500 nM | – |
| Cc1ncc2c(Cl)cc(C(C)NC(=O)c3c(N)nn4cccnc34)c(-c3cccc(F)c3)n12 (stereo not drawn) [Example 26] | – | – | – | < 500 nM |
| CCCC(NC(=O)c1c(N)nn2cccnc12)c1cc(Cl)c2cncn2c1N1CCS(=O)(=O)CC1 (stereo not drawn) [Example 178, trifluoroacetate salt] | – | – | – | < 500 nM |
| C[C@H](NC(=O)c1c(N)nn2cccnc12)c1cc(Cl)c2c(Cl)ncn2c1N1CCNC(=O)CC1 [Example 161, 2-Amino-N-{(1S)-1-[1,8-dichloro-5-(5-oxo-1,4-diazepan-1-yl)imidazo[1,5-a]pyridin-6-yl]ethyl} pyrazolo[1,5-a] pyrimidine-3-carboxamide trifluoroacetate salt] | < 100 nM | – | < 100 nM | – |
| CCOc1c(C(C)NC(=O)c2c(N)nn3cccnc23)cc(Cl)c2cn(C3CCC3)nc12 (stereo not drawn) [Example 10a, 2-amino-N-(1-(4-chloro-2-cyclobutyl-7-ethoxy-2H-indazol-6-yl)ethyl)pyrazolo[1,5-a]pyrimidine-3-carboxamide trifluoroacetate] | < 2000 nM | – | ≥ 2000 nM | – |
| CCOc1c(C(C)NC(=O)c2c(N)nn3cccnc23)cc(Cl)c2cn[nH]c12 (single isomer, unassigned) [Example 3b, 2-amino-N-[1-(4-chloro-7-ethoxy-1H-indazol-6-yl)ethyl]pyrazolo[1,5-a]pyrimidine-3-carboxamide trifluoroacetate] | > 2000 nM | – | ≥ 2000 nM | – |
| CC(NC(=O)c1c(N)nn2cccnc12)c1cc(Cl)c2nncn2c1-c1ccccc1 (racemic) [Example 185, 2-Amino-N-[1-(8-chloro-5-phenyl[1,2,4]triazolo[4,3-a]pyridin-6-yl)ethyl]pyrazolo[1,5-a]pyrimidine-3-carboxamide trifluoroacetate salt] | < 500 nM | – | ≥ 2000 nM | – |
| CCOc1c(C(C)NC(=O)c2c(N)nc3ccc(N4CCCCC4)nn23)cc(Cl)c2cn[nH]c12 (stereo not drawn) [Example 47, 2-Amino-N-(1-(4-chloro-7-ethoxy-1H-indazol-6-yl)ethyl)-6-(piperidin-1-yl)imidazo[1,2-b]pyridazine-3-carboxamide] | < 500 nM | – | < 500 nM | – |
| CC(NC(=O)c1c(N)nn2cccnc12)c1cc(Cl)c2cn[nH]c2c1OCCCN (stereo not drawn) [Example 64, 2-Amino-N-{1-[7-(3-aminopropoxy)-4-chloro-1H-indazol-6-yl]ethyl}pyrazolo[1,5-a]pyrimidine-3-carboxamide bis(trifluoroacetate)] | < 500 nM | – | < 500 nM | – |
| CC(NC(=O)c1c(N)nn2cccnc12)c1cc(Cl)c2cncn2c1C1CCCCC1 (racemic) [Example 183, 2-Amino-N-[1-(8-chloro-5-cyclohexylimidazo[1,5-a]pyridin-6-yl)ethyl]pyrazolo[1,5-a]pyrimidine-3-carboxamide trifluoroacetate salt] | < 500 nM | – | < 2000 nM | – |
| CC(NC(=O)c1c(N)nn2cccnc12)c1cc(Cl)c2cn[nH]c2c1-c1ccccc1 (stereo not drawn) [Example 14] | – | – | – | < 1000 nM |
